Measurements published in ChEMBL document CHEMBL5029145, “Discovery of AZD8154, a Dual PI3Kγδ Inhibitor for the Treatment of Asthma” (J Med Chem, 2021).
≈ marks a conversion by molar mass, not a printed value. Calls of active or inactive are those of the source. The calls are words filed in the database; no cut-off is given here.

Columns and labels:
[1] = Solubility of compound in at pH 7.4 at 1 mg/ml using crystalline form of sample incubated for 24 hrs by HPLC MS analysis; assay type: physicochemical
[2] = molecular target: Phosphatidylinositol 4,5-bisphosphate 3-kinase catalytic subunit gamma isoform (Mus musculus, UniProt Q9JHG7); test: Inhibition of PI3Kgamma in C5a-stimulated mouse RAW 264 cells assessed as inhibition of AKT phosphorylation at Ser473 residue Pretreated for 15 mins followed by C5a stimulation measured after 3 mins by HTRF assay; assay type: cell-based
Rattus norvegicus [3] = test: Antiinflammatory activity in ovalbumin induced Brown Norway rat assessed as reduction in eosinophil counts in lung lavage fluid at 240 microg/kg administered using nebulizer for 12 hrs prior to ovalbumin challenge measured after 48 hrs by flow cytometry; assay type: functional, organism-based; conditions: dose 240.0 µg/kg, time 60.0 hrs
[4] = molecular target: T1, Phosphatidylinositol 4,5-bisphosphate 3-kinase catalytic subunit delta isoform/gamma isoform (Homo sapiens) (UniProt P48736+O00329); test: Inhibition of PI3kgamma/delta in anti-CD2/3/28-stimulated human PBMC cells derived from asthmatic patient assessed as reduction in IL-5 release pre-incubated for 1 hr followed by anti-CD2/3/28 stimulation measured after 24 hrs by flow cytometry; assay type: cell-based; conditions: time 25.0 hrs
T1 sequence (P48736 whole entry, looked up, one chain of several, the tested form may be a part, canonical isoform): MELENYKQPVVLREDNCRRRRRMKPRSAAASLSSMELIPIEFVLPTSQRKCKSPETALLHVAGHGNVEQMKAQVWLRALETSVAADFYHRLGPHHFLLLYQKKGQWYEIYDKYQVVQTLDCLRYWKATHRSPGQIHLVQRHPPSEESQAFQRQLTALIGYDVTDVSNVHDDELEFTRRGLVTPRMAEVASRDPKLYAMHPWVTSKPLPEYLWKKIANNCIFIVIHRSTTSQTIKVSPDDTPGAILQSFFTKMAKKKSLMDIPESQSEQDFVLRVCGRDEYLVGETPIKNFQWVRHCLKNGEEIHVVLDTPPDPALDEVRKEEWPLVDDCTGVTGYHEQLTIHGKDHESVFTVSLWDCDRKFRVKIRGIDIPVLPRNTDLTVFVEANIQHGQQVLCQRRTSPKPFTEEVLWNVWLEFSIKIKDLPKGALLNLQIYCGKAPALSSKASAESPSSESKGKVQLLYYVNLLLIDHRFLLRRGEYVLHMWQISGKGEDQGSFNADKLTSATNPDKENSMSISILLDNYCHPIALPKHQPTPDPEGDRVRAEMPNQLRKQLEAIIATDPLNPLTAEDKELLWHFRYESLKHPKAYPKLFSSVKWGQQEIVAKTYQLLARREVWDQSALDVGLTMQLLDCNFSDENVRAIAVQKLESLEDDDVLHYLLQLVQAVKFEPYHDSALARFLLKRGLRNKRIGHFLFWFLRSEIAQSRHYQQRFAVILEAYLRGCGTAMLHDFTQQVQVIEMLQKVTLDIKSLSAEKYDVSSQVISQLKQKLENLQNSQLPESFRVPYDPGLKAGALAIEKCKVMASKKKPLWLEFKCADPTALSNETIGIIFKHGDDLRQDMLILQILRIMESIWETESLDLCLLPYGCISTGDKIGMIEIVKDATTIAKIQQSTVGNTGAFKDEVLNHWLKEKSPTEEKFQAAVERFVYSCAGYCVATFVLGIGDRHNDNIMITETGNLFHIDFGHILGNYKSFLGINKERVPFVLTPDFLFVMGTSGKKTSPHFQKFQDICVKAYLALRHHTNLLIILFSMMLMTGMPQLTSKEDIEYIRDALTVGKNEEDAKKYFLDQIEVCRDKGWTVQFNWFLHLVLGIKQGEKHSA

[5] = molecular target: Phosphatidylinositol 4-phosphate 3-kinase C2 domain-containing subunit beta (Homo sapiens, UniProt O00750); test: Inhibition of PIK3C2B (unknown origin) assessed as reduction in substrate phosphorylation by FRET Adapta assay
[6] = Apparent terminal half life in rat administered via inhalation; assay type: ADME; conditions: in vivo, inhaled or intranasal
[7] = Apparent permeability in human Caco2 cells; assay type: ADME, cell-based; conditions: caco-2
[8] = molecular target: Phosphatidylinositol 3-kinase catalytic subunit type 3 (Homo sapiens, UniProt Q8NEB9); test: Inhibition of PIK3C3 (unknown origin) assessed as reduction in substrate phosphorylation by FRET Adapta assay
Sequence of Phosphatidylinositol 3-kinase catalytic subunit type 3 (Q8NEB9 whole entry): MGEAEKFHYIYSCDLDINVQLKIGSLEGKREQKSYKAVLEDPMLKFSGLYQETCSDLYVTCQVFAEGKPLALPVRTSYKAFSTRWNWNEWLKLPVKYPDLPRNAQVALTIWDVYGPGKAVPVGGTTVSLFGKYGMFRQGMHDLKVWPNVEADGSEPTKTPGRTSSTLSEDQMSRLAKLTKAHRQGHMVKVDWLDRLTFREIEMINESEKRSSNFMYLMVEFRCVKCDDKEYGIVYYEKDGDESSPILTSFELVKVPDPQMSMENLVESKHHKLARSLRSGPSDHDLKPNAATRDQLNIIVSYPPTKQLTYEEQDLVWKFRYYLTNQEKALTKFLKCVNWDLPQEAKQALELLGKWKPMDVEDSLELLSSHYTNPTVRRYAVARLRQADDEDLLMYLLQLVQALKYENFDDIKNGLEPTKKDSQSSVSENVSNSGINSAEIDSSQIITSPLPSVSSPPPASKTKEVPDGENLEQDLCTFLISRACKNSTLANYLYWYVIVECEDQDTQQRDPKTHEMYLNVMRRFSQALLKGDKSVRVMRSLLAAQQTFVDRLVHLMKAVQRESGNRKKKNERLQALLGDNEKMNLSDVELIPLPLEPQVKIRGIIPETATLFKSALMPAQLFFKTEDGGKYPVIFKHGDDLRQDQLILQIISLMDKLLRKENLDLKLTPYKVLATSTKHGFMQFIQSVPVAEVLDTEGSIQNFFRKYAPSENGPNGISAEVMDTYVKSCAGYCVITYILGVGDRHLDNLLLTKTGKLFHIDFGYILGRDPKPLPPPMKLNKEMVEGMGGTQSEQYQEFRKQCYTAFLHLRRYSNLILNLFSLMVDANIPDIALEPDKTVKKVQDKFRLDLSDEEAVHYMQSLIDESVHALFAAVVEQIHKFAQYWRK

[9] = Permeability in human Caco2 cells; assay type: ADME, cell-based; conditions: caco-2
[10] = molecular target: Phosphatidylinositol 4-kinase alpha (Homo sapiens, UniProt P42356); test: Inhibition of PI4KA (unknown origin) assessed as reduction in substrate phosphorylation by FRET Adapta assay
[11] = molecular target: T1, Phosphatidylinositol 4,5-bisphosphate 3-kinase catalytic subunit delta isoform/gamma isoform (Homo sapiens); test: Inhibition of PI3kgamma/delta in anti-CD2/3/28-stimulated human PBMC cells derived from asthmatic patient assessed as reduction in IL-17 release pre-incubated for 1 hr followed by anti-CD2/3/28 stimulation measured after 24 hrs by flow cytometry; assay type: cell-based; conditions: time 25.0 hrs
[12] = molecular target: T2, Phosphatidylinositol 4,5-bisphosphate 3-kinase catalytic subunit delta isoform (Homo sapiens, UniProt O00329); test: Inhibition of PI3Kdelta in anti-IgM-stimulated human JeKo-1 cells assessed as inhibition of AKT phosphorylation at Ser473 residue incubated for 60 mins by TR-FRET assay
T2 sequence (O00329 whole entry): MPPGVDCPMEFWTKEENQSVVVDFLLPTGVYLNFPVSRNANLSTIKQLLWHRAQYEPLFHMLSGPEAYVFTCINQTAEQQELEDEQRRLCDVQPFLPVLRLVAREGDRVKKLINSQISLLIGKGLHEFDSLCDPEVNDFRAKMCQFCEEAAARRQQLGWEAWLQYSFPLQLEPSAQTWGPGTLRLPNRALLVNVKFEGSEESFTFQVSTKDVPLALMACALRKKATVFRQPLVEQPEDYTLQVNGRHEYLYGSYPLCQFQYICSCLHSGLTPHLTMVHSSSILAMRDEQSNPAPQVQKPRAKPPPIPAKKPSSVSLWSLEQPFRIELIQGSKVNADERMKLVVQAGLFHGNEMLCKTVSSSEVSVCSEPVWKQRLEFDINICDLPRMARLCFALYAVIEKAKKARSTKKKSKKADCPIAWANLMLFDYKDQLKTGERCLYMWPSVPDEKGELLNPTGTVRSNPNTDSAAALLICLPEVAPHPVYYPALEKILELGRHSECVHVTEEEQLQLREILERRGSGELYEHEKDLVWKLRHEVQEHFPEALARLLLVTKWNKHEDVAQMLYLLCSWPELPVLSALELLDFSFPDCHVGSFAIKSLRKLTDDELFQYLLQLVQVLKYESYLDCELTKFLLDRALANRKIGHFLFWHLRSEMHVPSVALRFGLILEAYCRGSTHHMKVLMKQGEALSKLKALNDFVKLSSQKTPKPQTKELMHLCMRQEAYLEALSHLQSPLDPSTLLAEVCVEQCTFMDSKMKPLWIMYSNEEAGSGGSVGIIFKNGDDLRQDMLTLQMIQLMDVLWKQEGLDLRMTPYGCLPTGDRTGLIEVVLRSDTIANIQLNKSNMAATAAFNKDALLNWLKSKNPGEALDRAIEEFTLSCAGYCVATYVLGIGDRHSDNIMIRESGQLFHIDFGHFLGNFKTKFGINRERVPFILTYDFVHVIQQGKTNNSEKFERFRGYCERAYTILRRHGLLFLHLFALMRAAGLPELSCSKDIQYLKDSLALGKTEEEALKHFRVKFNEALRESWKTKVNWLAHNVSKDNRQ

[13] = Half life in rat plasma at 0.5 mg/kg, iv; assay type: ADME, organism-based
[14] = Clearance in rat at 0.5 mg/kg, iv; assay type: ADME, organism-based; conditions: in vivo
[15] = molecular target: Phosphatidylinositol 4-phosphate 3-kinase C2 domain-containing subunit alpha (Homo sapiens, UniProt O00443); test: Inhibition of PIK3C2A (unknown origin) assessed as reduction in substrate phosphorylation by FRET Adapta assay
Sequence of Phosphatidylinositol 4-phosphate 3-kinase C2 domain-containing subunit alpha (O00443 whole entry, the tested form may be a part): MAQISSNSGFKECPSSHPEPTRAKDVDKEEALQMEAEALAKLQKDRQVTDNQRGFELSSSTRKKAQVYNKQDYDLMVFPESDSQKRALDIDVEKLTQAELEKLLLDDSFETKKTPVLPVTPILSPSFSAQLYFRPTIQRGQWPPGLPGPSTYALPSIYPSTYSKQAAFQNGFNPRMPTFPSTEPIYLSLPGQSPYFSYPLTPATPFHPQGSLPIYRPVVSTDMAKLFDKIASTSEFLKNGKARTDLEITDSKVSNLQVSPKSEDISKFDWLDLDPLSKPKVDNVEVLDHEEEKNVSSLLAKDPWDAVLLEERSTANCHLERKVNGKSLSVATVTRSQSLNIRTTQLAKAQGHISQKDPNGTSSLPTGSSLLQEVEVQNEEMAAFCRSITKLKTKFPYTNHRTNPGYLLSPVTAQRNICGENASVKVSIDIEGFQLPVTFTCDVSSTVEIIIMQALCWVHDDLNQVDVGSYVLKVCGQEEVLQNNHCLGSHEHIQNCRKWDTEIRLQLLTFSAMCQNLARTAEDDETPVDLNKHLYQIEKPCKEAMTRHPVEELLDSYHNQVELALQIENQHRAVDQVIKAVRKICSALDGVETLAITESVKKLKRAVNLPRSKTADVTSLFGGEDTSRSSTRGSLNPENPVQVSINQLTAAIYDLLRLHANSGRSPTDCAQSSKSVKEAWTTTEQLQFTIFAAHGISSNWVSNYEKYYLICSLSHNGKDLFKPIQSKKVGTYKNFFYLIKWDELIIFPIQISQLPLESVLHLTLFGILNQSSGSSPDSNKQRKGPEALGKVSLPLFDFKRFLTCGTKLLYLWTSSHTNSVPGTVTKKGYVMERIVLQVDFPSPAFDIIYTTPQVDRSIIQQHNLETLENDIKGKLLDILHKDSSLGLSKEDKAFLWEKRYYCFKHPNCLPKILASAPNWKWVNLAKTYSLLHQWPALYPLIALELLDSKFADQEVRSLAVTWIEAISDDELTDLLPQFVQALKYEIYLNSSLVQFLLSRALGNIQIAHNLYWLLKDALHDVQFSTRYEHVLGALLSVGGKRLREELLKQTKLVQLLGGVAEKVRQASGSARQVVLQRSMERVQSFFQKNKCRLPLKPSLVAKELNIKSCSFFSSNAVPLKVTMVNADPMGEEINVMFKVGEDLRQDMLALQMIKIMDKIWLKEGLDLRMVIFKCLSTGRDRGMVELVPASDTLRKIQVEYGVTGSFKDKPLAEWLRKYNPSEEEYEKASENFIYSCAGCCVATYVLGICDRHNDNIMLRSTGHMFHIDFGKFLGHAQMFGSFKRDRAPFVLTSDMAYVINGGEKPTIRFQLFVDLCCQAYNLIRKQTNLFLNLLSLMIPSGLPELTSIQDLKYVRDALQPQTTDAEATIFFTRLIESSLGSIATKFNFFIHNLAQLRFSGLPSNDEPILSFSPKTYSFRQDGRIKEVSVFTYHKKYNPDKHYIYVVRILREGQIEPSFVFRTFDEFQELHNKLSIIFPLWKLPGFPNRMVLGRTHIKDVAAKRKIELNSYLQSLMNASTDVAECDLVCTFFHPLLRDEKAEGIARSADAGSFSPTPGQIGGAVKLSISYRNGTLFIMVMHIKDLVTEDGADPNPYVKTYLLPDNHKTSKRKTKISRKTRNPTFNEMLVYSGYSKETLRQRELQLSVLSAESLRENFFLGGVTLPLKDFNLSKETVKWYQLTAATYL

[16] = Oral bioavailability in rat at 1.0 mg/kg; assay type: ADME, organism-based; conditions: in vivo
[17] = molecular target: T2, Phosphatidylinositol 4,5-bisphosphate 3-kinase catalytic subunit delta isoform; test: Inhibition of recombinant human PI3Kdelta assessed as reduction in ADP production using Dic8-PIP2 as substrate pre-treated for 15 mins followed by substrate addition measured after 60 mins by ADP-glo assay
[18] = molecular target: Phosphatidylinositol 4-kinase beta (Homo sapiens, UniProt Q9UBF8); test: Inhibition of PI4KB (unknown origin) assessed as reduction in substrate phosphorylation by FRET Adapta assay
Sequence of Phosphatidylinositol 4-kinase beta (Q9UBF8 whole entry): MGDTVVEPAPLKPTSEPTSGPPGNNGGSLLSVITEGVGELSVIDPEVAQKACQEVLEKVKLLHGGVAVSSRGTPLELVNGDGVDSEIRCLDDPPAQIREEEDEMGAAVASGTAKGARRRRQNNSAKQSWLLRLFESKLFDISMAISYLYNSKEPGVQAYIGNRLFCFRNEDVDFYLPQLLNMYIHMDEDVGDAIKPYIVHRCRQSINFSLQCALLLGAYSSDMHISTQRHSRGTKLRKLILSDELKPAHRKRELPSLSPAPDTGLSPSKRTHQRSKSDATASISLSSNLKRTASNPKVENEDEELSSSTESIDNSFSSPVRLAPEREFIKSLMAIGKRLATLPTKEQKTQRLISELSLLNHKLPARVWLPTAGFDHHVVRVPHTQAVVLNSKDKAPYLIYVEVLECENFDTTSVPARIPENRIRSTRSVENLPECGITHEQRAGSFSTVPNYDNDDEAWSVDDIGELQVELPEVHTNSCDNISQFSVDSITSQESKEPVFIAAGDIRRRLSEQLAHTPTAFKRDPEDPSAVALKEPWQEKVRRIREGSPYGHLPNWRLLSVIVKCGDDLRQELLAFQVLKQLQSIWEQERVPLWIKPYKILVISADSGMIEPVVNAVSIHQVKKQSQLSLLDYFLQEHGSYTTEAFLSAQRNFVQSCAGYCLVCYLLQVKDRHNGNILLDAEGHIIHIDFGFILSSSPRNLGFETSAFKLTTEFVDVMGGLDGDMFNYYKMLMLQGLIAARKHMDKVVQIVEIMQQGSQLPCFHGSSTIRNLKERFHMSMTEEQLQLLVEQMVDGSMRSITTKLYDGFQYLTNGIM

[19] = Distribution coefficient, logD of compound at pH 7.4; assay type: physicochemical; conditions: octanol/water
Rattus norvegicus [20] = test: Antiinflammatory activity in ovalbumin induced Brown Norway rat assessed as reduction in eosinophil counts in lung lavage fluid at 240 microg/kg administered using nebulizer for 24 hrs prior to ovalbumin challenge measured after 48 hrs by flow cytometry; assay type: functional, organism-based; conditions: dose 240.0 µg/kg, time 72.0 hrs
[21] = Volume of distribution at steady state in rat at 0.5 mg/kg, iv; assay type: ADME, organism-based; conditions: in vivo, read-out: Vdss
[22] = molecular target: T1, Phosphatidylinositol 4,5-bisphosphate 3-kinase catalytic subunit delta isoform/gamma isoform (Homo sapiens); test: Inhibition of PI3kgamma/delta in eotaxin-3-stimulated human eosinophils derived from asthmatic patient assessed as reduction in CD11b expression pre-incubated for 30 mins followed by eotaxin-3 stimulation for 30 mins by flow cytometry; assay type: tissue-based; conditions: Eosinophil, time 60.0 min

For `Cc1nc(Nc2cccc(N3CCCC3=O)n2)sc1-c1cc2c(c(S(C)(=O)=O)c1)C(=O)N([C@@H](C)C1CC1)C2` [AZD-8154], the solubility thermodynamic at 24 h [1] was 0.054 µM (≈ 0.0298 µg/mL), the IC50 [2] was 0.794 nM and the Activity (Rattus norvegicus [3]) was “inactive”. For the same molecule, the Activity [4] was “Active”, the IC50 [5] was 3.16 nM and the half-life [6] was 7.1 h. For the same molecule, the Papp [7] was “Impermeable”, the IC50 [8] was 501 nM and the permeability [9] was “Permeable”. The IC50 [10] was > 10000 nM, the Activity [11] was “Active” and the IC50 [12] was 3.98 nM. It also gave a half-life [13] of 2.9 h, a clearance [14] of 20 mL/min/kg and an IC50 [15] of 3980 nM. For the same molecule, the bioavailability [16] was < 4%, the IC50 [17] was 0.631 nM and the IC50 [18] was 3160 nM. The logD [19] was 4.4, the Activity (Rattus norvegicus [20]) was “inactive” and the Vd [21] was 4 L/kg. The Activity [22] was “Active”.
